Columns and labels:
MDA-MB-231 [1] = test: cells; settings: Homo sapiens, MDA-MB-231, 48 h
Description: Antiproliferative activity against human MDA-MB-231 cells assessed as inhibition of cell growth measured after 48 hrs by CCK-8 method

[2] = Antiproliferative activity against human HK-2 cells assessed as inhibition of cell growth measured after 48 hrs by CCK-8 method; assay type: toxicity, cell-based
MCF7 = test: cells; settings: Homo sapiens, MCF7, 48 h
Description: Antiproliferative activity against human MCF7 cells assessed as inhibition of cell growth measured after 48 hrs by CCK-8 method

[3] = Antiproliferative activity against rat H9c2 cells assessed as inhibition of cell growth measured after 48 hrs by CCK-8 method; assay type: toxicity, cell-based
[4] = Antiproliferative activity against human MCF-10A cells assessed as inhibition of cell growth measured after 48 hrs by CCK-8 method; assay type: toxicity, cell-based
SiHa = test: cells; settings: Homo sapiens, 48 h
Description: Antiproliferative activity against human SiHa cells assessed as inhibition of cell growth measured after 48 hrs by CCK-8 method

MDA-MB-436 = test: cells; settings: Homo sapiens, MDA-MB-436, 48 h
Description: Antiproliferative activity against human MDA-MB-436 cells assessed as inhibition of cell growth measured after 48 hrs by CCK-8 method

HeLa = test: cells; settings: Homo sapiens, 48 h
Description: Antiproliferative activity against human HeLa cells assessed as inhibition of cell growth measured after 48 hrs by CCK-8 method

[5] = Selectivity index, ratio of IC50 for antiproliferative activity against human MCF7 cells to IC50 for antiproliferative activity against human MDA-MB-231 cells; assay type: cell-based
[6] = Selectivity index, ratio of IC50 for antiproliferative activity against human MCF-10A cells to IC50 for antiproliferative activity against human MDA-MB-231 cells; assay type: toxicity, cell-based; settings: MCF-10A cells and MDA-MB-231 cells, read-out: Ratio IC50
MDA-MB-231 [7] = test: Induction of apoptosis in human MDA-MB-231 cells assessed as necrotic cells at 300 uM incubated for 24 hrs by Annexin V-FITC/PI staining based flow cytometry analysis (reference value: 0.033%); assay type: functional
MDA-MB-231 [8] = test: Induction of apoptosis in human MDA-MB-231 cells assessed as viable cells at 300 uM incubated for 24 hrs by Annexin V-FITC/PI staining based flow cytometry analysis (reference value: 94.1%); assay type: functional; settings: read-out: Activity
MDA-MB-231 [9] = test: Induction of apoptosis in human MDA-MB-231 cells assessed as late apoptotic cells at 300 uM incubated for 24 hrs by Annexin V-FITC/PI staining based flow cytometry analysis (reference value: 0.46%); assay type: functional
[10] = molecular target: Cell division cycle protein 20 homolog (Homo sapiens, UniProt Q12834); test: Binding affinity to Cdc20 (unknown origin) assessed as dissociation constant measured after 360 secs by surface plasmon resonance assay
MDA-MB-231 [11] = test: Induction of apoptosis in human MDA-MB-231 cells assessed as early apoptotic cells at 300 uM incubated for 24 hrs by Annexin V-FITC/PI staining based flow cytometry analysis (reference value: 5.40%); assay type: functional
MDA-MB-231 [12] = test: Induction of cell cycle arrest in human MDA-MB-231 cells assessed as increase in accumulation of cells at G2/M phase at 300 uM measured after 24 hrs by PI staining based flow cytometry analysis (reference value: 26.38%); assay type: functional
MDA-MB-231 [13] = test: Antitumor activity against human MDA-MB-231 cells xenografted in BALB/c nude mouse model assessed as reduction in tumor growth at 30 mg/kg, ip administered daily for 18 days by vernier caliper method relative to control; assay type: functional; set-up: scale not given: the % may be the effect or the level left; settings: time 18 day

Chain of Cell division cycle protein 20 homolog (Q12834 whole entry): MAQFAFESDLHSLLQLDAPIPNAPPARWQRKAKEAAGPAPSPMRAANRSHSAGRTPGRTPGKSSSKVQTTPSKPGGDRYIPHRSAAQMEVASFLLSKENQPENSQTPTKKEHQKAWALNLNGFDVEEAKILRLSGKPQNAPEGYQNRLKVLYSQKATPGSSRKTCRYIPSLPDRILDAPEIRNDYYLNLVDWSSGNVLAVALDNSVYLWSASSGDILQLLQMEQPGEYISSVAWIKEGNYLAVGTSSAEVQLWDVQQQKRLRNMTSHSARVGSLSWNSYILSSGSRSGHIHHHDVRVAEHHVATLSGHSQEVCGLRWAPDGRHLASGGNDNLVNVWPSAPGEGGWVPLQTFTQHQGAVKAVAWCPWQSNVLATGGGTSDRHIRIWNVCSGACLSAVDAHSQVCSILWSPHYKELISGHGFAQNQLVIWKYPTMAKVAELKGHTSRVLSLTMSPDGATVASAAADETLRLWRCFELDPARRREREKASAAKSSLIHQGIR

Compound Cc1ncc([N+](=O)[O-])n1CCOC(=O)NC(Nc1nc(Cl)cc(Nc2ccc(OC(F)(F)F)cc2)n1)C(Cl)(Cl)Cl (centres undefined) has an IC50 (MDA-MB-231 [1]) of 5.65 µM.

In the case of O=C(NC(Nc1nc(Cl)cc(Nc2ccc(C(F)(F)F)cc2)n1)C(Cl)(Cl)Cl)OCCc1ccncc1 (centres undefined), the IC50 (MDA-MB-231 [1]) is reported as 7.52 µM.

Compound Cc1ncc([N+](=O)[O-])n1CCOC(=O)NC(Nc1nc(Cl)cc(Nc2ccccc2)n1)C(Cl)(Cl)Cl (centres undefined) has an IC50 at 48 h [2] of 18.3 µM, an IC50 (MCF7) of 9 µM and an IC50 at 48 h [3] of 15.1 µM. The IC50 at 48 h [4] was 22.5 µM, the IC50 (SiHa) was 24.4 µM and the IC50 (MDA-MB-436) was 13.7 µM. The IC50 (HeLa) was 19.6 µM and the IC50 (MDA-MB-231 [1]) was 14.1 µM.

Cc1ncc([N+](=O)[O-])n1CCOC(=O)NC(Nc1nc(Cl)cc(-c2ccccc2)n1)C(Cl)(Cl)Cl (centres undefined) gave an IC50 (SiHa) of 41.4 µM, an IC50 (HeLa) of 33.2 µM and an IC50 (MDA-MB-231 [1]) of 18.5 µM.

Cc1ncc([N+](=O)[O-])n1CCOC(=O)NC(Nc1nc(Cl)cc(N(C)C)n1)C(Cl)(Cl)Cl (centres undefined) gave an IC50 (SiHa) of 47.4 µM, an IC50 (HeLa) of 70.2 µM and an IC50 (MDA-MB-231 [1]) of 36.4 µM.

O=C(NC(Nc1nc(Cl)cc(Nc2ccc(C(F)(F)F)cc2)n1)C(Cl)(Cl)Cl)OCCCCc1ccccc1 (centres undefined) gave an IC50 (MDA-MB-231 [1]) of 7.21 µM.

Cc1ncc([N+](=O)[O-])n1CCOC(=O)NC(Nc1nc(Cl)cc(Nc2ccc(C#N)cc2)n1)C(Cl)(Cl)Cl (centres undefined) showed an IC50 (MDA-MB-231 [1]) of 11 µM.

Cc1ncc([N+](=O)[O-])n1CCOC(=O)NC(Nc1nc(N)cc(F)n1)C(Cl)(Cl)Cl (centres undefined) gave an IC50 (SiHa) greater than 100 µM, an IC50 (HeLa) of 65.4 µM and an IC50 (MDA-MB-231 [1]) greater than 100 µM.

Compound CCN(CC)c1cc(Cl)nc(NC(NC(=O)OCCn2c([N+](=O)[O-])cnc2C)C(Cl)(Cl)Cl)n1 (centres undefined) has an IC50 (SiHa) of 35.7 µM, an IC50 (HeLa) of 38.9 µM and an IC50 (MDA-MB-231 [1]) of 16.2 µM.

For Cc1ncc([N+](=O)[O-])n1CCOC(=O)NC(Nc1nc(Cl)cc(Nc2cccc(OC(F)(F)F)c2)n1)C(Cl)(Cl)Cl (centres undefined), the IC50 (MDA-MB-231 [1]) was 6.76 µM.

Compound O=C(NC(Nc1nc(Cl)cc(Nc2ccc(C(F)(F)F)cc2)n1)C(Cl)(Cl)Cl)OCCCc1ccncc1 (centres undefined) has an IC50 (MDA-MB-231 [1]) of 7.27 µM.

With O=C(NC(Nc1nc(Cl)cc(Nc2ccc(C(F)(F)F)cc2)n1)C(Cl)(Cl)Cl)OCCCc1ccccn1 (centres undefined) the IC50 (MDA-MB-231 [1]) was 11.1 µM.

With Cc1ncc([N+](=O)[O-])n1CCOC(=O)NC(Nc1nc(Nc2ccc(C(F)(F)F)cc2)cc(C(F)(F)F)n1)C(Cl)(Cl)Cl (centres undefined) the IC50 (MDA-MB-231 [1]) was 5.23 µM.

O=C(NC(Nc1nc(Cl)cc(Nc2ccc(C(F)(F)F)cc2)n1)C(Cl)(Cl)Cl)OCCCc1cccnc1 (centres undefined) showed an IC50 (MDA-MB-231 [1]) of 13.8 µM.

O=C(NC(Nc1nc(Cl)cc(Nc2ccc(C(F)(F)F)cc2)n1)C(Cl)(Cl)Cl)OCCNC(=O)c1csc(Cl)n1 (centres undefined) showed an IC50 (MDA-MB-231 [1]) of 7.27 µM.

For Cn1ccnc1C(=O)NCCOC(=O)NC(Nc1nc(Cl)cc(Nc2ccc(C(F)(F)F)cc2)n1)C(Cl)(Cl)Cl (centres undefined), the IC50 (MDA-MB-231 [1]) was 7.22 µM.

Cc1ncc(C(=O)NCCOC(=O)NC(Nc2nc(Cl)cc(Nc3ccc(C(F)(F)F)cc3)n2)C(Cl)(Cl)Cl)s1 (centres undefined) gave an IC50 (MDA-MB-231 [1]) of 4.36 µM.

Compound Cc1ncc([N+](=O)[O-])n1CCOC(=O)NC(Nc1ncc(Cl)c(Nc2ccc(C(F)(F)F)cc2)n1)C(Cl)(Cl)Cl (centres undefined) has an IC50 (MDA-MB-231 [1]) of 4.19 µM.

For O=C(NC(Nc1nc(Cl)cc(Nc2ccc(C(F)(F)F)cc2)n1)C(Cl)(Cl)Cl)OCCCc1ccccc1 (centres undefined), the IC50 (MDA-MB-231 [1]) was 6.69 µM.

Compound Cc1ccc(Nc2cc(Cl)nc(NC(NC(=O)OCCn3c([N+](=O)[O-])cnc3C)C(Cl)(Cl)Cl)n2)cc1 (centres undefined) has an IC50 (MDA-MB-231 [1]) of 7.62 µM.

In the case of Cc1ncc([N+](=O)[O-])n1CCOC(=O)NC(Nc1nc(Cl)cc(Nc2cccc(C#N)c2)n1)C(Cl)(Cl)Cl (centres undefined), the IC50 (MDA-MB-231 [1]) is reported as 16.2 µM.

In the case of COc1cc(N)nc(NC(NC(=O)OCCn2c([N+](=O)[O-])cnc2C)C(Cl)(Cl)Cl)n1 (centres undefined), the IC50 (SiHa) is reported as 89.4 µM, the IC50 (HeLa) is reported as greater than 100 µM and the IC50 (MDA-MB-231 [1]) is reported as greater than 100 µM.

Compound CNc1cc(Cl)nc(NC(NC(=O)OCCn2c([N+](=O)[O-])cnc2C)C(Cl)(Cl)Cl)n1 (centres undefined) has an IC50 (SiHa) of 56.6 µM, an IC50 (HeLa) of 72.3 µM and an IC50 (MDA-MB-231 [1]) of 56.7 µM.

Cc1ncc([N+](=O)[O-])n1CCOC(=O)NC(Nc1nc(N)cc(Cl)n1)C(Cl)(Cl)Cl (centres undefined) showed an IC50 (SiHa) of 39 µM, an IC50 (HeLa) of 45 µM and an IC50 (MDA-MB-231 [1]) greater than 100 µM.

With Cc1ncc([N+](=O)[O-])n1CCOC(=O)NC(Nc1nc(Cl)cc(Nc2ccccc2F)n1)C(Cl)(Cl)Cl (centres undefined) the IC50 (MDA-MB-231 [1]) was 16 µM.

Compound O=C(NC(Nc1nc(Cl)cc(Nc2ccc(C(F)(F)F)cc2)n1)C(Cl)(Cl)Cl)OCCc1ccccn1 (centres undefined) has an IC50 (MDA-MB-231 [1]) of 5.34 µM.

Work on Cc1cc(N)nc(NC(NC(=O)OCCn2c([N+](=O)[O-])cnc2C)C(Cl)(Cl)Cl)n1 (centres undefined) yielded an IC50 (SiHa) greater than 100 µM, an IC50 (HeLa) greater than 100 µM and an IC50 (MDA-MB-231 [1]) greater than 100 µM.

For Cc1ncc([N+](=O)[O-])n1CCOC(=O)NC(Nc1nc(Cl)cc(Nc2ccc(C(F)(F)F)cc2)n1)C(Cl)(Cl)Cl (centres undefined), the IC50 at 48 h [2] was 10.1 µM, the IC50 (MCF7) was 7.42 µM and the “Ratio IC50” value [5] was 1.86. The IC50 at 48 h [3] was 22.5 µM, the IC50 at 48 h [4] was 3.7 µM and the IC50 (MDA-MB-436) was 4.6 µM. It also gave a selectivity ratio [6] of 0.93 and an IC50 (MDA-MB-231 [1]) of 3.98 µM.

In the case of O=C(NC(Nc1nc(Cl)cc(Nc2ccc(C(F)(F)F)cc2)n1)C(Cl)(Cl)Cl)OCCc1ccccc1 (centres undefined), the IC50 (MDA-MB-231 [1]) is reported as 6.61 µM.

Compound Cc1cccc(Nc2cc(Cl)nc(NC(NC(=O)OCCn3c([N+](=O)[O-])cnc3C)C(Cl)(Cl)Cl)n2)c1 (centres undefined) has an IC50 (MDA-MB-231 [1]) of 7.79 µM.

With O=C(NC(Nc1nc(Cl)cc(Nc2ccc(C(F)(F)F)cc2)n1)C(Cl)(Cl)Cl)OCCNC(=O)c1cnc(Cl)s1 (centres undefined) the IC50 (MDA-MB-231 [1]) was 3.89 µM.

Compound O=C(NC(Nc1nc(Cl)cc(Nc2ccc(C(F)(F)F)cc2)n1)C(Cl)(Cl)Cl)OCc1ccccc1 (centres undefined) has an IC50 (MDA-MB-231 [1]) of 7.63 µM.

For Cc1ncc([N+](=O)[O-])n1CCOC(=O)NC(Nc1nc(Cl)cc(Nc2cccc(C(F)(F)F)c2)n1)C(Cl)(Cl)Cl (centres undefined), the IC50 (MDA-MB-231 [1]) was 6.01 µM.

With Cc1ncc([N+](=O)[O-])n1CCOC(=O)NC(Nc1ncc(Br)c(Nc2ccc(C(F)(F)F)cc2)n1)C(Cl)(Cl)Cl (centres undefined) the IC50 (MDA-MB-231 [1]) was 4.58 µM.

In the case of Cc1ncc([N+](=O)[O-])n1CCOC(=O)NC(Nc1ncccn1)C(Cl)(Cl)Cl (centres undefined), the Activity (MDA-MB-231 [7]) is reported as 0.7%, the viability at 300 µM (MDA-MB-231 [8]) is reported as 59.7% and the IC50 at 48 h [2] is reported as 151 µM. It also gave an Activity (MDA-MB-231 [9]) of 0.95%, a Kd [10] of 236 µM and an IC50 (MCF7) of 292 µM. The “Ratio IC50” value [5] was 1.53, the Activity (MDA-MB-231 [11]) was 38.6% and the IC50 at 48 h [3] was 252 µM. It also gave an IC50 at 48 h [4] of 161 µM, an Activity (MDA-MB-231 [12]) of 38.8% and an IC50 (SiHa) of 203 µM. It also gave an Activity (MDA-MB-231 [13]) of 53%, an IC50 (MDA-MB-436) of 176 µM and a selectivity ratio [6] of 0.84. The IC50 (HeLa) was 198 µM and the IC50 (MDA-MB-231 [1]) was 192 µM.

In the case of Cc1ncc([N+](=O)[O-])n1CCOC(=O)NC(Nc1nc(Cl)cc(Nc2ccc(F)cc2)n1)C(Cl)(Cl)Cl (centres undefined), the IC50 (MDA-MB-231 [1]) is reported as 8.13 µM.

With Cc1ncc([N+](=O)[O-])n1CCOC(=O)NC(Nc1nc(Cl)cc(Nc2cccc(F)c2)n1)C(Cl)(Cl)Cl (centres undefined) the IC50 (MDA-MB-231 [1]) was 8.67 µM.

In the case of O=C(NC(Nc1nc(Cl)cc(Nc2ccc(C(F)(F)F)cc2)n1)C(Cl)(Cl)Cl)OCCc1cccnc1 (centres undefined), the IC50 (MDA-MB-231 [1]) is reported as 13.8 µM.
